Data as given in US9353382B2, “Process, vectors and engineered cell lines for enhanced large-scale transfection” (National Research Council of Canada, priority 2008, dated 2016).

Columns and labels:
[1] = tested on: CHO-EBNA1c (clone 3E7) cells; test: Effect of PKB (AKT) and valproic acid on transient gene expression (SEAP); assay type: cell-based, Chinese Hamster; conditions: 0.25 mM VPA added 24 hours post-transfection; days 5 to 8 post-transfection
Experimental: (§1) Secreted alkaline phosphatase activity determination: SEAP activity is measured as previously described using the colorimetric substrate paranitrophenyl phosphate (Durocher et al, 2000).
Referring to FIG. 10, the effect of PKB (AKT) and valproic acid (VPA) on transient gene expression in CHO-EBNA1c (clone 3E7) cells is illustrated. The CHO-EBNA1c cells were transfected with a mixture of SEAP-encoding oriP plasmids (pTT-SEAP) and stuffer DNA or pTT-AKTdd vector (AKTdd is a dominant-positive mutant of AKT). In some cases, 0.25 mM VPA was added 24 hours post-transfection. SEAP activity (ΔA410/min) was measured at days 5 to 8 post-transfection.

[2] = tested on: HEK293-EBNA1t (clone 6E) cells; test: Effect of FGF2 co-expression on transient SEAP expression in HEK293-EBNA1t cells; assay type: cell-based, human; conditions: 25% pTT-SEAP, 0-70% FGF2 plasmid; 7 days post-transfection
Experimental: as §1
(§2) Referring to FIG. 9, graphs are shown illustrating the effect of FGF2 (bFGF) co-expression on transient gene expression in HEK293-EBNA1t (clone 6E) cells (upper panel) and CHO-EBNA1c (clone 3E7) cells (lower panel). The HEK293-EBNA1t and CHO-EBNA1c cells were transfected with 25% pTT-SEAP vector and increasing amounts (0%, 15%, 30%, 45%, 60% and 70%) of FGF2-encoding pTT plasmid (the overall content of DNA was kept constant with non-coding stDNA). SEAP activity (OD/min at 410 nm) was measured in the supernatant 7 days post-transfection. From the upper panel it is evident that SEAP activity in HEK293-EBNA1t cells is decreased by co-expression of FGF2. From the lower panel it is evident that SEAP activity in CHO-EBNA1c cells is increased by co-expression of FGF2. […] Increased productivity in CHO cells may be due to a FGF-induced rRNA synthesis.

[3] = tested on: CHO-EBNA1c (clone 3E7) cells; test: Effect of FGF2 co-expression on transient SEAP expression in CHO-EBNA1c cells; assay type: cell-based, Chinese Hamster; conditions: 25% pTT-SEAP, 0-70% FGF2 plasmid; 7 days post-transfection
Experimental: as §1, §2

CCCC(CCC)C(=O)O [valproic acid]
effect on transient gene expression (SEAP activity) [1]: increases transient gene expression

FGF2
SEAP activity on co-expression of FGF2 [2]: decreased
SEAP activity on co-expression of FGF2 [3]: increased
